Data from PubChem BioAssay AID2060615 (Molecular Pharmacology Branch, DTP, NCI, 2025).
pIC50: −log10 of the molar value. Values joined by “and” are separate entries in the source; they are usually repeats but may differ in a detail not shown here. Equal values may be shown once.

Test system: 496974-208-R-J2-PDC complex spheroids, growth % test/control
Assay: Anticancer human tumor 496974-208-R-J2-PDC patient-derived pancreatic carcinoma cell line growth inhibition [CLK]
Details: for viability, T/C: stronger effect = lower value
How it was run: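 Multi-cell-type spheroids combined patient-derived tumor cells with HUVEC endothelial cells and human mesenchymal stem cells. Paired agents were dosed in half-log steps down from about clinical Cmax, or from 10 microM where Cmax was unknown.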
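Further: spheroids exposed to the drugs for 7 days before readout.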
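Wherever viability, T/C is given: 100% = DMSO vehicle control wells.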

With `CN1CCN(c2cc(C(=O)Nc3cc4cc(-c5cnn(C)c5)ccc4cn3)ccn2)CC1` the viability, T/C (compound 0.0316 µM) was 103% [middle of 12 runs], the viability, T/C (compound 0.1 µM) was 87.9% [middle of 12 runs] and the viability, T/C (compound 0.316 µM) was 6.96% [middle of 11 runs]. The viability, T/C (compound 1 µM) was 1.74% [middle of 12 runs], the viability, T/C (compound 3.16 µM) was 0.79% [middle of 12 runs] and the viability, T/C (compound 10 µM) was 0.34% [middle of 8 runs]. The IC50 (compound alone, run of 09/18/2023) was 171 nM [middle of 11 runs].
For `NC(=O)C(=Cn1cnc(-c2cc(C(F)(F)F)cc(C(F)(F)F)c2)n1)c1cncnc1` + CN1CCN(c2cc(C(=O)Nc3cc4cc(-c5cnn(C)c5)ccc4cn3)ccn2)CC1, the pIC50 (curve of first compound, second compound 0.0316 µM) was 7.09, the pIC50 (curve of first compound, second compound 0.1 µM) was 7.38 and the pIC50 (curve of first compound, second compound 0.316 µM) was > 8.02. The pIC50 (curve of first compound, second compound 1 µM) was > 8.02, the pIC50 (curve of first compound, second compound 3.16 µM) was > 8.02 and the pIC50 (curve of first compound, second compound 10 µM) was > 8.02. It also gave a viability, T/C (second compound 0.0316 µM, first compound 0.00949 µM) of 90.6%, a viability, T/C (second compound 0.0316 µM, first compound 0.03 µM) of 67.2% and a viability, T/C (second compound 0.0316 µM, first compound 0.0949 µM) of 52.1%. For the same molecule, the viability, T/C (second compound 0.0316 µM, first compound 0.3 µM) was 21.3%, the viability, T/C (second compound 0.0316 µM, first compound 0.949 µM) was 16.9% and the viability, T/C (second compound 0.0316 µM, first compound 3 µM) was 11.8%. It also gave a viability, T/C (second compound 0.1 µM, first compound 0.00949 µM) of 61.6%, a viability, T/C (second compound 0.1 µM, first compound 0.03 µM) of 56.5% and a viability, T/C (second compound 0.1 µM, first compound 0.0949 µM) of 35.2%. It also gave a viability, T/C (second compound 0.1 µM, first compound 0.3 µM) of 12.4%, a viability, T/C (second compound 0.1 µM, first compound 0.949 µM) of 7.44% and a viability, T/C (second compound 0.1 µM, first compound 3 µM) of 2.92%. It also gave a viability, T/C (second compound 0.316 µM, first compound 0.00949 µM) of 2.46%, a viability, T/C (second compound 0.316 µM, first compound 0.03 µM) of 1.91% and a viability, T/C (second compound 0.316 µM, first compound 0.0949 µM) of 3.26%. The viability, T/C (second compound 0.316 µM, first compound 0.3 µM) was 0.41%, the viability, T/C (second compound 0.316 µM, first compound 0.949 µM) was 0.31% and the viability, T/C (second compound 0.316 µM, first compound 3 µM) was 0.19%. It also gave a viability, T/C (second compound 1 µM, first compound 0.00949 µM) of 0.39%, a viability, T/C (second compound 1 µM, first compound 0.03 µM) of 0.4% and a viability, T/C (second compound 1 µM, first compound 0.0949 µM) of 0.64%. For the same molecule, the viability, T/C (second compound 1 µM, first compound 0.3 µM) was 0.44%, the viability, T/C (second compound 1 µM, first compound 0.949 µM) was 2.17% and the viability, T/C (second compound 1 µM, first compound 3 µM) was 0.11%. The viability, T/C (second compound 3.16 µM, first compound 0.00949 µM) was 0.34%, the viability, T/C (second compound 3.16 µM, first compound 0.03 µM) was 0.4% and the viability, T/C (second compound 3.16 µM, first compound 0.0949 µM) was 0.41%. It also gave a viability, T/C (second compound 3.16 µM, first compound 0.3 µM) of 0.37%, a viability, T/C (second compound 3.16 µM, first compound 0.949 µM) of 0.26% and a viability, T/C (second compound 3.16 µM, first compound 3 µM) of 0.13%. For the same molecule, the viability, T/C (second compound 10 µM, first compound 0.00949 µM) was 0.25%, the viability, T/C (second compound 10 µM, first compound 0.03 µM) was 0.23% and the viability, T/C (second compound 10 µM, first compound 0.0949 µM) was 1.86%. For the same molecule, the viability, T/C (second compound 10 µM, first compound 0.3 µM) was 0.31%, the viability, T/C (second compound 10 µM, first compound 0.949 µM) was 0.24% and the viability, T/C (second compound 10 µM, first compound 3 µM) was 0.69%.
`C=CC(=O)Nc1cc(Nc2nccc(-c3cn(C)c4ccccc34)n2)c(OC)cc1N(C)CCN(C)C` was tested, and the viability, T/C (compound 0.000949 µM) was 102% and 103%, the viability, T/C (compound 0.003 µM) was 99.3% and 105% and the viability, T/C (compound 0.00949 µM) was 86% and 93.1%. For the same molecule, the viability, T/C (compound 0.03 µM) was 85.4% and 94.9%, the viability, T/C (compound 0.0949 µM) was 98.1% and 88.5% and the viability, T/C (compound 0.3 µM) was 70.9% and 70.3%. For the same molecule, the pIC50 (curve of compound) was < 6.52.
